In patent publication EP2518139A1, “Use of indirubin derivatives for producing pluripotent stem cells” (Universitätsklinikum Jena, priority 2011, dated 2012):
Entries after “also recorded” stand apart in the source; their conditions may differ.

Key:
Assay type in all cases: cell-based, human
[1] = test system: BMP/TGFß downstream genes (ID1, ID2, CTGF, SnoN); assay: qRT-PCR of BMP/TGFß downstream genes in HeLa cells; settings: E738 (1µM)
Protocol: RT-PCR: Total RNA was isolated with RNA isolation kit from Qiagen according to the manufacturer's instructions. cDNA was generated by reverse-transcription of equivalent quantities of RNA and Quantitative real-time PCR (QRT-PCR) was performed as described previously.
To evaluate the effect of indirubin on transcriptional activity, we focused on the BMP/Smad pathway and performed RT-PCR to measure the BMP/TGFß downstream genes expression regulated by E738 (Fig. 2E). […] As for ID2 only 50% was remained to be expressed. CTGF, a BMP antagonist and TGFß agonist (Abreu 2002 nature cell biology 4 599-607) and SnoN, a TGFß downstream gene were declined up to approximate 30% and 10% respectively.

[2] = test system: Sox2; assay: Immunoblot of Sox2 expression in HFF cells; settings: 2h
[3] = test system: MAPKs (JNK, P38, Erk1/2); assay: Immunoblot of phosphorylated MAPKs in HeLa cells; settings: BMP2 (100ng/mL)
Protocol: (§1) Western blot:: Cell extracts were homogenized in Urea-Lysis buffer (1mM EDTA,0.5% Triton X-100), 5mM NaF, 6M Urea, 1mM Na3VO4, 10µg/mL Pepstatin, 100µM PMSF and 3µg/mL Aprotinin in PBS). Enhanced chemiluminescence (ECL) Western blot analysis was performed. 20-40µg of total protein was resolved on 10% SDS-PAGE gels and immunoblotted with specific antibodies. Primary antibodies were incubated at a 1:1,000 dilution in TBS (pH 7.5) with 0.1% Tween-20 and 5% BSA/nonfat milk with gentle agitation overnight at 4°C. The proper secondary antibodies were incubated in TBS (pH 7.5) with 5% BSA/nonfat milk and 0.1 % Tween-20 at a 1:5,000 dilution for 1 h at room temperature.
To assess the effect of E738 on Wnt and Stat3 pathway in mammalian cellular context, HeLa cells were treated with E738 at increasing concentrations for 1 h. Here E804 was used as reference because of its well-known inhibition of Stat3 and Wnt. The antibodies of p-Stat3 and non-phosphorylation-ß-Catenin (NP-ß-Catenin, Ser33/37/Thr41), which can provide a convenient positive band if GSK3B is inhibited, were recruited to substantiated our in vitro results. […] With the stimulation of FCS, we also observed the similar regulation on Stat3 and MAPKs pathways depicted in Fig. 8. […]

[4] = test system: mono-, di- and poly-ubiquitins; assay: Immunoblot of ubiquitins in HeLa cells; settings: BMP-stimulated HeLa, 24h; MG132 5µM, E738 (1µM)
Protocol: as §1
Ubiquitin-proteasome degradation system is the major route to protein degradation. To identify if indirubin-induced degradation is conducted by proteasome, we utilized MG132, a general proteasome inhibitor, to characterize the role of proteasome in degradation. We found 5µM MG132 was sufficient to rescue the E738 mediated Smad1/5/8 […] 24h after treatment (Fig. 5E and 5F). […] Thus we interpreted that E738 might be able to promote degradation of polymerased ubiquintins through activating the formation of complexes with certain substrates, speculatively like Smad1/2/3/5/8, leading to accelerate the recycling of mono-ubiquitin, while MG132 blocked the degradation of these complexes and arrest such recycling. […]

[5] = test system: HFF; assay: iPS-Colony formation and Alkaline phosphatases staining in HFF; settings: E738 (0.5µM) 8 days, Alkaline phosphatases staining after 14 days E738 (1µM)
Protocol: Cell culture: HeLa and Hek293T were cultured in DMEM (PAA) containing 10% FCS (PAA) and 1% PS (PAA). HFF (human foreskin fibroblasts) were cultured in DMEM containing 15% FCS and 1%PS. Mouse embryonic fibroblasts were cultured in DMEM containing 10% NCS (LifeTechnologies) and 1% PS. The cells were maintained under 5% CO2 at 37°C in a humidified atmosphere. The cells were treated with various compounds as indicated in context. The images were taken at indicated time points using a Keyence digital-microskop BZ-800.
iPS-Colony formation and Alkaline phosphatases staining in HFF: 10^5 cells/well HFF at passage 4 were seeded in a 12-well plate in 15% FCS. Next day, the cells were treated with indicated concentrations of E738 without change of medium for indicated times. After the appearance of morphologic transition and stem cell like colony formation, alkaline phosphatase staining was performed using StemTAG Alkaline phosphatase staining kit (Biocat, Germany) according to the manufacturers protocol.

COc1ccc2c(c1)C(=C1Nc3ccccc3C1=NOCC(O)CO)C(=O)N2 (stereo not drawn) [E738]
ID2 expression ([1]; BMP2 (100ng/mL), 1 h after incubation): firstly silenced
ID2 expression ([1]; BMP2 (100ng/mL), 6h treatment): doubled again
ID1 expression ([1]; BMP2 (100ng/mL), time course): constantly reduced
CTGF expression, declined up to ([1]; BMP, 24h): ~30%
ID2 remained to be expressed ([1]; BMP, 24h): 50%
SnoN expression, declined up to ([1]; BMP, 24h): ~10%
expression of ID1 ([1]; BMP, 24h): significantly repressed
expression of Sox2 [2]: stimulates expression of Sox2
phosphorylations of MAPKs (JNK, P38, Erk1/2) ([3]; 1 h, increasing concentrations): promoted phosphorylations of JNK and P38 at the low concentraions, but not for Erk1/2
p-JNK, p-P38 and pErk1/2 ([3]; 6h after treatment): induced activation of P38; also recorded: clear increases of p-JNK and p-P38 were observed 6h after treatment, but not pErk1/2
mono-, di- and poly-ubiquitins [4]: more mono-ubiquitin, but less di- and poly-ubiquitins
formation of ESC-like colony [5]: induces the formation of ESC-like colony from HFF
